From patent US20170285044A1, “METHODS FOR PREDICTING AND IMPROVING THE SURVIVAL OF GASTRIC CANCER PATIENTS” (Pierian Holdings, Inc., priority 2011, published 2017)

What was measured:
NCI-87 cells = type: cell-based, human; conditions: without altering total HER2 levels, FIG. 12
Description: (§1) Multiple Drug Effect Analysis: ˜1 X10^4 cells were plated in 24-well plate and grown in appropriate growth media. Lapatinib, cMET inhibitor or both agents (combo) were added at 1 μM concentration for 4 hrs and lysed for subsequent pathway profiling.
(§2) Immuno-microarray slides were rinsed 2× with TB ST (50 mM Tris/150 mM NaCl/0.1% Tween-20, pH 7.2-7.4), blocked with 80 μL Whatman Blocking Buffer lhr at RT, then washed 2× with TBST. Serially diluted lysate controls in 80 μL dilution buffer (2% BSA/0.1% TritonX-100/TBS, pH 7.2-7.4) and samples were added to designated sub-arrays on slides, then incubated 1 hour at RT. Slides were washed 4× (3 min. each), and detector Abs were added in 80 μL of reaction buffer and incubated for 2 hours at RT. After washing slides with TB ST to remove unbound detector Abs, 80 μL of biotin-tyramide solution (5 μg/m1 in 50 mM glucose/PBS) prepared from 400 μg/mL in ethanol solution (Perkin-Elmer Life Science) was added and incubated 15 min in darkness. Glucose-oxidase (GO)/HRP-mediated tyramide signal amplification process was terminated by washing with TBST 4×, 3 min each. Local deposition of biotin-tyramide was detected by incubation with streptavidin (SA)-Alexa647 (Invitrogen) at 0.5 μg/mL in 2% BSA/0.1% Triton/TBS for 40 min. Upon completion of incubation, slides were washed 4× with TBST, dried and kept in darkness until imaged via microarray scanner. […]

[1] = system: MET-amplified SNU484 cells; type: cell-based, human; conditions: FIG. 12
Description: as §1, §2

[2] = system: unselected gastric cancer patients; conditions: monotherapy; Jhawer et al., 2008; cited from earlier work

Row | SMILES | HER2 activation (NCI-87 cells) | HER2 activation [1] | objective response [2]
1 | CS(=O)(=O)CCNCc1ccc(-c2ccc3ncnc(Nc4ccc(OCc5cccc(F)c5)c(Cl)c4)c3c2)o1 [lapatinib] | abolished | unable to do so | 
2 | COc1cc2c(Oc3ccc(NC(=O)C4(C(=O)Nc5ccc(F)cc5)CC4)cc3F)ccnc2cc1OCCCN1CCOCC1 [foretinib] |  |  | failed to demonstrate an objective response
